Data as given in the NIST ThermoML archive (doi:10.1021/je800077r).

How the values were obtained:
[1] = xn = mol fraction of the nth substance listed; details: 101 kPa, Liquid; for speed of sound: Sing-around technique in a fixed-path interferometer; for mass density: Vibrating tube method
[2] = refractive index (Na D-line) (dimensionless); xn = mol fraction of the nth substance listed; details: 101 kPa, Liquid, Standard Abbe refractometry

CCOC(C)=O [ethyl acetate] + CCCCCC
Details | mass density, 293.15 K [kg/m3] | mass density, 298.15 K [kg/m3] | mass density, 303.15 K [kg/m3] | refractive index, 293.15 K | refractive index, 298.15 K | refractive index, 303.15 K | speed of sound, 293.15 K [m/s] | speed of sound, 298.15 K [m/s] | speed of sound, 303.15 K [m/s]
[1], x2 = 0 | 900.5 | 894.4 | 888.2 | – | – | – | 1162 | 1141 | 1111
[1], x2 = 0.0469 | 884.3 | 878.2 | 872.2 | – | – | – | 1152 | 1129 | 1099
[1], x2 = 0.0969 | 868 | 862 | 855.9 | – | – | – | 1141 | 1119 | 1089
[1], x2 = 0.1898 | 838.9 | 833.1 | 827.3 | – | – | – | 1125 | 1103 | 1074
[1], x2 = 0.2962 | 808.6 | 803 | 797.3 | – | – | – | 1111 | 1089 | 1061
[1], x2 = 0.3907 | 783.5 | 778 | 772.4 | – | – | – | 1101 | 1079 | 1053
[1], x2 = 0.5028 | 756 | 750.7 | 745.3 | – | – | – | 1093 | 1071 | 1046
[1], x2 = 0.598 | 734.5 | 729.3 | 724.1 | – | – | – | 1090 | 1067 | 1042
[1], x2 = 0.6995 | 713.1 | 708.1 | 703.1 | – | – | – | 1088 | 1066 | 1041
[1], x2 = 0.803 | 693.3 | 688.4 | 683.5 | – | – | – | 1089 | 1067 | 1043
[1], x2 = 0.9005 | 675.8 | 671.1 | 666.4 | – | – | – | 1093 | 1071 | 1047
[1], x2 = 0.9514 | 667.3 | 662.7 | 658.1 | – | – | – | 1096 | 1074 | 1051
[2], x2 = 0 | – | – | – | 1.37241 | 1.36977 | 1.36712 | – | – | –
[2], x2 = 0.0469 | – | – | – | 1.37193 | 1.36926 | 1.3666 | – | – | –
[2], x2 = 0.0969 | – | – | – | 1.37157 | 1.3689 | 1.36622 | – | – | –
[2], x2 = 0.1898 | – | – | – | 1.37105 | 1.36832 | 1.36559 | – | – | –
[2], x2 = 0.2962 | – | – | – | 1.3706 | 1.36785 | 1.36513 | – | – | –
[2], x2 = 0.3907 | – | – | – | 1.37053 | 1.36776 | 1.365 | – | – | –
[2], x2 = 0.5028 | – | – | – | 1.37066 | 1.36789 | 1.36511 | – | – | –
[2], x2 = 0.598 | – | – | – | 1.37101 | 1.36823 | 1.36547 | – | – | –
[2], x2 = 0.6995 | – | – | – | 1.3718 | 1.36896 | 1.36611 | – | – | –
[2], x2 = 0.803 | – | – | – | 1.37266 | 1.3698 | 1.36689 | – | – | –
[2], x2 = 0.9005 | – | – | – | 1.37381 | 1.37096 | 1.36803 | – | – | –
[2], x2 = 0.9514 | – | – | – | 1.3744 | 1.37157 | 1.36866 | – | – | –

CCCCCCn1cc[n+](C)c1.F[P-](F)(F)(F)(F)F [1-hexyl-3-methylimidazolium hexafluorophosphate] + CCOC(C)=O
Details | mass density, 293.15 K [kg/m3] | mass density, 298.15 K [kg/m3] | mass density, 303.15 K [kg/m3] | refractive index, 293.15 K | refractive index, 298.15 K | refractive index, 303.15 K | speed of sound, 293.15 K [m/s] | speed of sound, 298.15 K [m/s] | speed of sound, 303.15 K [m/s]
[1], x1 = 0.0506 | 952.6 | 946.8 | 941 | – | – | – | 1185 | 1163 | 1142
[1], x1 = 0.104 | 998.7 | 993.2 | 987.6 | – | – | – | 1210 | 1189 | 1169
[1], x1 = 0.1978 | 1063.8 | 1058.6 | 1053.4 | – | – | – | 1252 | 1233 | 1215
[1], x1 = 0.2924 | 1114.6 | 1109.8 | 1104.9 | – | – | – | 1288 | 1271 | 1254
[1], x1 = 0.4549 | 1179.7 | 1175.2 | 1170.5 | – | – | – | 1335 | 1320 | 1305
[1], x1 = 0.4974 | 1193.3 | 1188.9 | 1184.2 | – | – | – | 1346 | 1331 | 1317
[1], x1 = 0.5904 | 1219.5 | 1215.2 | 1210.7 | – | – | – | 1366 | 1352 | 1338
[1], x1 = 0.7015 | 1245.8 | 1241.5 | 1237.2 | – | – | – | 1387 | 1374 | 1361
[1], x1 = 0.7926 | 1263.8 | 1259.8 | 1255.6 | – | – | – | 1403 | 1390 | 1378
[1], x1 = 0.8941 | 1281.6 | 1277.6 | 1273.8 | – | – | – | 1420 | 1407 | 1395
[1], x1 = 0.9459 | 1289.8 | 1285.8 | 1282 | – | – | – | 1429 | 1415 | 1403
[1], x1 = 1 | 1297.9 | 1293.7 | 1289.6 | – | – | – | 1438 | 1424 | 1411
[2], x1 = 0.0506 | – | – | – | 1.38064 | 1.37838 | 1.37606 | – | – | –
[2], x1 = 0.104 | – | – | – | 1.3874 | 1.38537 | 1.38312 | – | – | –
[2], x1 = 0.1978 | – | – | – | 1.39645 | 1.39415 | 1.39194 | – | – | –
[2], x1 = 0.2924 | – | – | – | 1.402 | 1.40007 | 1.39821 | – | – | –
[2], x1 = 0.4549 | – | – | – | 1.40845 | 1.4069 | 1.40523 | – | – | –
[2], x1 = 0.4974 | – | – | – | 1.40969 | 1.40821 | 1.40664 | – | – | –
[2], x1 = 0.5904 | – | – | – | 1.41237 | 1.41083 | 1.40893 | – | – | –
[2], x1 = 0.7015 | – | – | – | 1.41438 | 1.41296 | 1.4115 | – | – | –
[2], x1 = 0.7926 | – | – | – | 1.41592 | 1.41446 | 1.41307 | – | – | –
[2], x1 = 0.8941 | – | – | – | 1.41731 | 1.41594 | 1.41454 | – | – | –
[2], x1 = 0.9459 | – | – | – | 1.41797 | 1.41662 | 1.41526 | – | – | –
[2], x1 = 1 | – | – | – | 1.41923 | 1.41787 | 1.41643 | – | – | –
